PubChem BioAssay (NCI)
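Each compound was tested at five concentrations against cells in 96-well plates for 48 hours. At the TGI there is no net growth.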

Legend:
Test in all cases: inhibition of tumour cell growth, NCI panel, 48 h
LOX IMVI melanoma = test system: LOX IMVI melanoma
NCI-H226 lung = test system: NCI-H226 lung
MCF7 breast = test system: MCF7 breast
SNB-75 CNS = test system: SNB-75 CNS
KM12 colon = test system: KM12 colon
DU-145 prostate = test system: DU-145 prostate
SW-620 colon = test system: SW-620 colon
M14 melanoma = test system: M14 melanoma
PC-3 prostate = test system: PC-3 prostate
TK-10 renal = test system: TK-10 renal
SF-295 CNS = test system: SF-295 CNS
UACC-257 melanoma = test system: UACC-257 melanoma
UACC-62 melanoma = test system: UACC-62 melanoma
OVCAR-8 ovarian = test system: OVCAR-8 ovarian
SF-268 CNS = test system: SF-268 CNS
786-0 renal = test system: 786-0 renal
RXF 393 renal = test system: RXF 393 renal
SK-OV-3 ovarian = test system: SK-OV-3 ovarian
SK-MEL-28 melanoma = test system: SK-MEL-28 melanoma
BT-549 breast = test system: BT-549 breast
OVCAR-3 ovarian = test system: OVCAR-3 ovarian
NCI/ADR-RES ovarian = test system: NCI/ADR-RES ovarian
SK-MEL-5 melanoma = test system: SK-MEL-5 melanoma
IGROV1 ovarian = test system: IGROV1 ovarian
SK-MEL-2 melanoma = test system: SK-MEL-2 melanoma
HL-60(TB) leukemia = test system: HL-60(TB) leukemia
K-562 leukemia = test system: K-562 leukemia
SNB-19 CNS = test system: SNB-19 CNS
CCRF-CEM leukemia = test system: CCRF-CEM leukemia
HCT-116 colon = test system: HCT-116 colon
EKVX NSCLC = test system: EKVX NSCLC
MDA-MB-435 = test system: MDA-MB-435
T-47D breast = test system: T-47D breast
SF-539 CNS = test system: SF-539 CNS
A498 renal = test system: A498 renal
RPMI-8226 leukemia = test system: RPMI-8226 leukemia
ACHN renal = test system: ACHN renal
MOLT-4 leukemia = test system: MOLT-4 leukemia
HOP-62 NSCLC = test system: HOP-62 NSCLC
OVCAR-5 ovarian = test system: OVCAR-5 ovarian
NCI-H23 lung = test system: NCI-H23 lung
COLO 205 colon = test system: COLO 205 colon
HCT-15 colon = test system: HCT-15 colon
SR leukemia = test system: SR leukemia
NCI-H460 lung = test system: NCI-H460 lung
HT29 colon = test system: HT29 colon
UO-31 renal = test system: UO-31 renal
MALME-3M melanoma = test system: MALME-3M melanoma
HS 578T breast = test system: HS 578T breast
SN12C renal = test system: SN12C renal
A549 NSCLC = test system: A549 NSCLC
OVCAR-4 ovarian = test system: OVCAR-4 ovarian
U251 CNS = test system: U251 CNS
CAKI-1 renal = test system: CAKI-1 renal
NCI-H522 lung = test system: NCI-H522 lung

## Cc1c2c(n(C)c1C)C(=O)C1C(C2=O)C2(C)c3ccccc3C1(C)c1ccccc12 (stereo not given)
LOX IMVI melanoma
  TGI: > 100 µM
NCI-H226 lung
  TGI: > 100 µM
MCF7 breast
  TGI: > 100 µM
SNB-75 CNS
  TGI: > 100 µM
KM12 colon
  TGI: > 100 µM
DU-145 prostate
  TGI: > 100 µM
SW-620 colon
  TGI: > 100 µM
M14 melanoma
  TGI: > 100 µM
PC-3 prostate
  TGI: > 100 µM
TK-10 renal
  TGI: > 100 µM
SF-295 CNS
  TGI: > 100 µM
UACC-257 melanoma
  TGI: > 100 µM
UACC-62 melanoma
  TGI: > 100 µM
OVCAR-8 ovarian
  TGI: > 100 µM
SF-268 CNS
  TGI: > 100 µM
786-0 renal
  TGI: > 100 µM
RXF 393 renal
  TGI: > 100 µM
SK-OV-3 ovarian
  TGI: > 100 µM
SK-MEL-28 melanoma
  TGI: > 100 µM
BT-549 breast
  TGI: > 100 µM
OVCAR-3 ovarian
  TGI: > 100 µM
NCI/ADR-RES ovarian
  TGI: > 100 µM
SK-MEL-5 melanoma
  TGI: > 100 µM
IGROV1 ovarian
  TGI: > 100 µM
SK-MEL-2 melanoma
  TGI: > 100 µM
HL-60(TB) leukemia
  TGI: > 100 µM
K-562 leukemia
  TGI: > 100 µM
SNB-19 CNS
  TGI: > 100 µM
CCRF-CEM leukemia
  TGI: > 100 µM
HCT-116 colon
  TGI: > 100 µM
EKVX NSCLC
  TGI: > 100 µM
MDA-MB-435
  TGI: > 100 µM
T-47D breast
  TGI: > 100 µM
SF-539 CNS
  TGI: > 100 µM
A498 renal
  TGI: > 100 µM
RPMI-8226 leukemia
  TGI: > 100 µM
ACHN renal
  TGI: > 100 µM
MOLT-4 leukemia
  TGI: > 100 µM
HOP-62 NSCLC
  TGI: > 100 µM
OVCAR-5 ovarian
  TGI: > 100 µM
NCI-H23 lung
  TGI: > 100 µM
COLO 205 colon
  TGI: > 100 µM
HCT-15 colon
  TGI: > 100 µM
SR leukemia
  TGI: > 100 µM
NCI-H460 lung
  TGI: > 100 µM
HT29 colon
  TGI: > 100 µM
UO-31 renal
  TGI: > 100 µM
MALME-3M melanoma
  TGI: > 100 µM
HS 578T breast
  TGI: > 100 µM

## CN(CCCNC(=O)c1nn(-c2ccccc2)c2c1ccc1ccccc12)CCCNC(=O)c1nn(-c2ccccc2)c2c1ccc1ccccc12
LOX IMVI melanoma
  TGI: 2.95 µM
MCF7 breast
  TGI: 3.32 µM
SNB-75 CNS
  TGI: 2.88 µM
SN12C renal
  TGI: 3.32 µM
KM12 colon
  TGI: 3.96 µM
DU-145 prostate
  TGI: 3.92 µM
M14 melanoma
  TGI: 3.16 µM
PC-3 prostate
  TGI: 2.77 µM
TK-10 renal
  TGI: 3.58 µM
SF-295 CNS
  TGI: 3.69 µM
UACC-257 melanoma
  TGI: 3.65 µM
UACC-62 melanoma
  TGI: 3.03 µM
A549 NSCLC
  TGI: 2.85 µM
OVCAR-8 ovarian
  TGI: 3.38 µM
SF-268 CNS
  TGI: 3.39 µM
OVCAR-4 ovarian
  TGI: 3.02 µM
SK-OV-3 ovarian
  TGI: 3.38 µM
SK-MEL-28 melanoma
  TGI: 3.01 µM
U251 CNS
  TGI: 3.01 µM
BT-549 breast
  TGI: 3.04 µM
OVCAR-3 ovarian
  TGI: 2.73 µM
NCI/ADR-RES ovarian
  TGI: 3.53 µM
IGROV1 ovarian
  TGI: 2.87 µM
SK-MEL-2 melanoma
  TGI: 3.15 µM
HL-60(TB) leukemia
  TGI: 3.07 µM
CAKI-1 renal
  TGI: 2.7 µM
SNB-19 CNS
  TGI: 3.29 µM
CCRF-CEM leukemia
  TGI: 0.628 µM
HCT-116 colon
  TGI: 3.13 µM
EKVX NSCLC
  TGI: 3.1 µM
MDA-MB-435
  TGI: 2.92 µM
T-47D breast
  TGI: 3.78 µM
SF-539 CNS
  TGI: 3.62 µM
NCI-H522 lung
  TGI: 3.17 µM
ACHN renal
  TGI: 3.17 µM
MOLT-4 leukemia
  TGI: 3.42 µM
HOP-62 NSCLC
  TGI: 3.69 µM
OVCAR-5 ovarian
  TGI: 5.24 µM
COLO 205 colon
  TGI: 3.63 µM
HCT-15 colon
  TGI: 3.16 µM
SR leukemia
  TGI: 2.75 µM
NCI-H460 lung
  TGI: 2.97 µM
HT29 colon
  TGI: 3.2 µM
UO-31 renal
  TGI: 2.91 µM
MALME-3M melanoma
  TGI: 3.47 µM
HS 578T breast
  TGI: > 100 µM
